Assay: in vitro
Conditions: human, hela cells, % viability

| Structure (SMILES) | viability at 28.5 h, 10 µM [%] |
| --- | --- |
| O=C(C1=C(O)C(=O)N(Cc2cccnc2)C1c1cccc([N+](=O)[O-])c1)c1ccccc1 (stereo not shown) [CBK263383] | 107 |
| O=C(Cc1cc(F)cc(F)c1F)Nc1ccc2[nH]ccc2c1 [CBK159686] | 87.4 |
| COC1CCCC(C(=O)N2CCC(c3onc4c3CCC4)CC2)C1 (stereo not shown) [CBK285519] | 103 |
| CNCC(=O)N1CCN(C(=O)c2ccc(Cl)cc2Cl)CC1 [CBK029576] | 99.9 |
| COc1cc(-c2cnc3cccnc3c2N)cc(OC)c1OC [CBK081190] | 93.1 |
| COc1ccc(OC(=O)c2cc(S(=O)(=O)N3CCOCC3)ccc2Cl)cc1 [CBK261655] | 88.9 |
| Cc1ccc(S(=O)(=O)Cc2ccc(C(=O)N3CCN(Cc4ccccc4)CC3)cc2)cc1 [CBK269588] | 86.1 |
| Cc1ccc([N+](=O)[O-])cc1NC1OC(C(O)CO)C(O)C1O (stereo not shown) [CBK262031] | 98 |
| Cn1nccc1NS(=O)(=O)c1ccc(F)cc1 [CBK050484] | 106 |
| COc1ccc(-c2cn3ccnc3c(N3CCCCC3CO)n2)cc1OC (stereo not shown) [CBK066230] | 107 |
| Clc1ccc(CSCCn2cccc2)cc1 [CBK021366] | 92 |
| OC1(c2cccnc2F)CCN(Cc2ccc(Cl)cc2)CC1 [CBK284368] | 102 |
| N#CCCN(CCN1CCCC1)S(=O)(=O)c1cccc2nsnc12 [CBK261141] | 99.3 |
| CCCCSc1nc(N)cc(N2CCCC(C(=O)N3CCOCC3)C2)n1 (stereo not shown) [CBK307210] | 75.2 |
| Cc1ccc(C(=O)NCC(O)c2ccc(F)cc2F)cn1 (stereo not shown) [CBK297751] | 89.8 |
| Cc1ccc(C)c(NC(=O)Cc2nc(CN3CCNC(=O)C3)cs2)c1 [CBK305071] | 96.4 |
| Cc1ccc(-n2c(SCC(=O)c3ccc4c(c3)OCO4)nnc2-c2ccncc2)cc1 [CBK266132] | 104 |
| OCCN1CCN(c2cc(Nc3ccc(Oc4ccccc4)cc3)nc3ccnn23)CC1 [CBK037185] | 94.9 |
| Cc1ccc(C(NC(=O)Cn2ccnc2)c2ccncc2)cc1C (stereo not shown) [CBK281591] | 87.4 |
| Cn1cncc1CN1C2CCC1CC(O)(c1ccccc1F)C2 (stereo not shown) [CBK282649] | 107 |
| COc1ccc2c(c1)C1(CC(=O)N(Cc3ccccc3)C1=O)C(=O)N2CCCN1C(=O)c2ccccc2C1=O (stereo not shown) [CBK075501] | 93.4 |
| Nc1n[nH]c2nc(-c3ccccc3)c3c(c12)CCC3 [CBK288178] | 88.8 |

| Structure (SMILES) | viability at 28.5 h, 10 µM [%] |
| --- | --- |
| COC(=O)Cn1nnc(-c2ccccc2)n1 [CBK069215] | 84.8 |
| COc1ccc(Nc2cc(-c3ccc(SC)cc3)ncn2)c(C)c1 [CBK091042] | 89.2 |
| O=C(Nc1cccc(C(F)(F)F)c1)c1nc[nH]n1 [CBK027341] | 89.4 |
| NC(=O)CN1CCC(Oc2cncc(OCc3ccc(Cl)c(Cl)c3)n2)C1 (stereo not shown) [CBK084429] | 101 |
| CC1CCCC(C)N1C(=O)Cn1ncn2c(cc3ccsc32)c1=O (stereo not shown) [CBK284191] | 110 |
| CCn1c(C)nc2cc(NC(=O)c3c4c(nn3C)CCCC4)ccc21 [CBK281831] | 93.8 |
| OCCNc1nc(-c2cccnc2)nc2ccccc12 [CBK262314] | 105 |
| N#Cc1c(NC(=O)c2cc(S(=O)(=O)N3CCOCC3)c(Cl)cc2Cl)sc2c1CCCC2 [CBK263204] | 95.7 |
| COc1cc(/C=C/C(=O)O)cc(S(=O)(=O)N2CCc3ccccc3C2)c1OC [CBK264406] | 96.8 |
| CCN(CC)S(=O)(=O)c1ccc(CNC(=O)Cc2ccc(Cl)cc2)cc1 [CBK306188] | 105 |
| O=C(O)c1ccsc1NS(=O)(=O)c1ccc(Oc2ccccc2)cc1 [CBK042259] | 89.8 |
| O=C(Nc1ncc(Cc2ccc(F)cc2)s1)c1ccc(-c2ccc(F)cc2)o1 [CBK300522] | 99.5 |
| CNC(=O)C1CCN(Cc2ccc(-c3nnn(CC(=O)NCc4ccc(C)cc4)n3)cc2)CC1 [CBK153195T] | 96.1 |
| Cc1ccc(C2CCCN2C(=O)Cn2cc(C(=O)NCc3ccccc3)ccc2=O)cc1C (stereo not shown) [CBK286051] | 88.1 |
| CC(C)Cc1ccc(-c2cc(NCCc3ccccn3)ncn2)cc1 [CBK091088] | 99.6 |
| COc1ccc(CCCC(=O)Nc2ccc(N3CCNCC3)c3ccccc23)cc1OC [CBK028406T] | 105 |
| COc1ccc(OC(=O)c2csc(Cc3c(Cl)cccc3Cl)n2)cc1 [CBK083573] | 95.7 |
| CCN1CCN(c2ccc(N3C(=O)N[C@@H](C(C)C)C3=O)cc2)CC1 [CBK287953] | 87.5 |
| Brc1ccc(-c2nc(CSc3nnnn3C3CCCCC3)no2)cc1 [CBK026913] | 110 |
| CC(=O)NCC(=O)N(c1ccccc1)C1(C(=O)NC(c2ccccc2)c2ccccc2)CCCC1 [CBK100884] | 102 |
| Cc1n[nH]c(C)c1CCC(=O)N/N=C\c1cccc(Oc2ccccc2)c1 [CBK263384] | 98.8 |
| CC1CCc2c(C(=O)N3CC(C)OC(C)C3)csc2C1 (stereo not shown) [CBK304442] | 106 |

| Structure (SMILES) | viability at 28.5 h, 10 µM [%] |
| --- | --- |
| CC1=C(C)CC(C(=O)Nc2sc3c(c2C(=O)OC(C)C)CCCC3)C(C(=O)O)C1 (stereo not shown) [CBK265428] | 87 |
| CC12CN(S(=O)(=O)c3ccccc3)CC(c3ccccc3)(CN(S(=O)(=O)c3ccccc3)C1)C2=O [CBK268101] | 97 |
| O=C1CC(c2ccco2)Cc2c1cnn2-c1ccccc1 (stereo not shown) [CBK287860] | 95.8 |
| O=C(NCCCn1ccnc1)c1ncoc1-c1ccccc1 [CBK283887] | 99 |
| OCC(CO)(CO)NCc1ccc(-c2ccccc2)cc1 [CBK268742C] | 93.2 |
| CCN(Cc1ccccc1)Cc1c(O)ccc2c(=O)c(-c3ccccc3OC)c(C(F)(F)F)oc12 [CBK265839] | 90 |
| Cc1nc(CC(=O)OC(C)C(=O)N2CCCc3ccccc32)cs1 (stereo not shown) [CBK305285] | 91.6 |
| NCc1ccc(CN(Cc2ccc(-c3ccccc3)cc2)C(=O)Nc2ccccc2C(F)(F)F)cc1 [CBK046116C] | 86.3 |
| O=C(Cc1ccc(F)cc1)N1CCCC(c2cc3ncccc3[nH]2)C1 (stereo not shown) [CBK283414] | 109 |
| CCOC(=O)C1CCN(S(=O)(=O)c2c(C)noc2C)CC1 [CBK051112] | 96.9 |
| O=C(c1cc(Br)cc2c1OCC2)N1CCCCC1 [CBK007109] | 91.8 |
| Cc1sc2nc(C(C)Nc3ccc4[nH]c(=O)[nH]c4c3)[nH]c(=O)c2c1C (stereo not shown) [CBK297915] | 80.6 |
| C=CCSc1nc2ccccc2c(=O)n1CCc1ccccc1 [CBK055285] | 81.9 |
| O=C(N1CCCC1)N1CCN(c2cncc(-c3ccc(O)cc3)n2)CC1 [CBK126947T] | 93.5 |
| COc1cccc([C@H]2CN(C(=O)c3ccccc3)[C@@H]3CCN(Cc4ccccc4)C[C@H]23)c1 [CBK285624] | 88.2 |
| Cc1nn(-c2ccccc2)c2c1C(C(=O)c1ccc3c(c1)OCO3)CC(=O)N2 (stereo not shown) [CBK294436] | 86.1 |
| Cc1c(S(=O)(=O)Nc2nnc(C(F)(F)F)s2)sc2ccc(Cl)cc12 [CBK062018] | 81.9 |
| Cc1cnc(Cl)c2ncn([C@H]3C[C@@H](O)[C@@H](CO)O3)c12 [CBK201234] | 97.7 |
| COc1ccc(-c2cc(C(F)(F)F)nc(SCC(=O)NN3CCN(C)CC3)n2)cc1 [CBK266115] | 96.5 |
| C=Cn1ncc(CN(CCN(C)C)Cc2ccc(C)o2)c1C [CBK283236] | 110 |
| Cc1ccc2cc(CNc3ccc4[nH]ncc4c3)c(=O)[nH]c2c1 [CBK281935] | 86.1 |
| Cc1nnnn1CCC(=O)NCCc1cn2ccccc2n1 [CBK306816] | 121 |

| Structure (SMILES) | viability at 28.5 h, 10 µM [%] |
| --- | --- |
| O=C(CCSc1nnnn1-c1ccc(C(=O)O)cc1)Nc1ccc(F)cc1 [CBK300497] | 88.4 |
| COc1ccc([C@]23CN(C)C[C@H]2CCN(C(=O)Nc2cccc(Cl)c2)C3)cc1OC [CBK075104T] | 112 |
| COc1ccc(CNC(=O)C(=O)NCc2ccccc2)cc1 [CBK262158] | 103 |
| COc1ccc2cc(CNC(Cc3ccccc3)c3ccccc3)c(Cl)nc2c1 (stereo not shown) [CBK295357] | 93.3 |
| N=c1n(CC(=O)O)c2ccccc2n1Cc1ccccc1Cl [CBK262917B] | 90.3 |
| CN1CCC(N(C)C(=O)NCCN2CCOCC2)C1 (stereo not shown) [CBK156002] | 96.3 |
| CCc1nc2ccc(NC(=O)c3csc(C(C)=O)c3)cc2[nH]1 [CBK282538] | 114 |
| Nc1nnc(Nc2ccc(Cl)cc2)[nH]1 [CBK017433] | 91.7 |
| Cc1ccc(Cl)cc1-n1cc(-c2ccc(Cl)cc2)nn1 [CBK113045] | 82.4 |
| CCOC(=O)NC(Nn1cnnc1)(C(F)(F)F)C(F)(F)F [CBK261344] | 117 |
| Cc1c(Cl)cccc1S(=O)(=O)NC1=NC(=O)C(CC(=O)Nc2ccccc2Cl)S1 (stereo not shown) [CBK200043] | 107 |
| COc1cccc2cc(C3CN(C(=O)C(C)(C)NC(=O)OC(C)(C)C)CC3C(=O)O)oc12 (stereo not shown) [CBK001348] | 102 |
| CCOC(=O)c1c(NC(=O)CSc2ccc(F)cc2)sc2c1CCCC2 [CBK266506] | 95.9 |
| O=C(CCCOc1ccc(Cl)cc1Cl)Nc1c[nH]c(=O)[nH]c1=O [CBK264235] | 113 |
| CCCC/C=C/c1nccnc1N(C)Cc1ccccc1 [CBK037412] | 99.8 |
| COC(=O)C1CC(O)CN1S(=O)(=O)c1cccs1 (stereo not shown) [CBK086668] | 87 |
| Cc1nc(NS(=O)(=O)c2c(C)noc2C)sc1C(=O)N1CCOCC1 [CBK050574] | 98.4 |
| COc1ccc2[nH]c3c(c2c1)CCOC31CCN(C(=O)Nc2ccc(C(C)C)cc2)CC1 [CBK047154] | 95.5 |
| O=c1c2ccccc2nc(SCc2cccc3nsnc23)n1-c1ccccc1 [CBK266076] | 82.1 |
| CCS(=O)(=O)Nc1ccc(C2=NN(S(=O)(=O)c3ccc(F)cc3)C(c3ccccc3C)C2)cc1 (stereo not shown) [CBK269161] | 103 |
| c1csc(-c2cncc(NCCc3ccncc3)n2)c1 [CBK065797] | 105 |

Same assay, conditions: human, hela cells, % viability, bulk resorufin, single well

| Structure (SMILES) | viability at 28.5 h, 10 µM [%] |
| --- | --- |
| CN(C(=O)c1ccc(Cl)c(Cl)c1)[C@H]1CCC[C@H]1N1CCCC1 [CBK003411C] | 90 |
